Measurements taken from patent US7025999B2, “Chewing gum having prolonged sensory benefits” (Wm. Wrigley Jr. Company, priority 2001, dated 2006).

Experiment: Relative sweetness of hydrophobic sweetener compounds (factor used for the Sucrose Equivalent calculation)
Conditions: Sucrose Equivalent = weight percent in the chewing gum multiplied by relative sweetness
From the text: It should be appreciated that due to the slow release of hydrophobic sweeteners from the chewing gum, it is believed that higher levels of the hydrophobic sweeteners as compared to typical water soluble sweeteners may be necessary to provide the desired level of sweetness or sweetness intensity. The amount can suitably vary depending on any number of factors, such as the desired level of sweetness and the relative sweetness intensity specific to the hydrophobic sweetener compound. As detailed below, the relative sweetness can vary depending on the type of hydrophobic sweetener compound. In an embodiment, chewing gum includes the hydrophobic sweetener compound in an amount ranging from about 50 to about 5000 Sucrose Equivalents. The Sucrose Equivalent factor is determined by multiplying the weight percent of the hydrophobic compound in the chewing gum by its relative sweetness. By way of example and not limitation, the following tables illustrate a variety of hydrophobic sweetener compounds representative of the hydrophobic sweetener compounds of Formulas I–XI, as previously discussed. The tables also indicate the relative sweetness of the hydrophobic sweetener compounds. As previously discussed, this factor can be utilized to calculate the Sucrose Equivalent calculation which relates to the amount of hydrophobic sweetener in the chewing gum.

Compound | Relative Sweetness
COc1ccc(C2COc3ccccc3C2)cc1O (stereo not shown) [Compound 1] | 200
COc1ccc(C2Cc3ccccc3CO2)cc1O (stereo not shown) [Compound 2] | 350
COc1ccc(C2CCc3ccccc3O2)cc1O (stereo not shown) [Compound 3] | 350
COc1ccc(C2COc3ccccc3O2)cc1O (stereo not shown) [Compound 4] | 450
COc1ccc(C2OCc3ccccc3O2)cc1O (stereo not shown) [Compound 5] | 3000
COc1ccc(C2Oc3ccccc3CS2)cc1O (stereo not shown) [Compound 6] | 500
COc1ccc(C2CSc3ccccc3O2)cc1O (stereo not shown) [Compound 7] | 250
COc1ccc(C2OCc3ccccc3S2)cc1O (stereo not shown) [Compound 8] | 9000
COc1ccc(C2COc3ccccc3S2)cc1O (stereo not shown) [Compound 9] | 2000
COc1ccc(C2CCc3ccccc3S2)cc1O (stereo not shown) [Compound 10] | 200
COc1ccc(C2SCc3ccccc3S2)cc1O (stereo not shown) [Compound 11] | 1000
COc1ccc(C2CSc3ccccc3S2)cc1O (stereo not shown) [Compound 12] | 450
COc1ccc(C2Sc3ccccc3S2)cc1O [Compound 13] | 200
COc1ccc(C2Oc3ccccc3S2)cc1O (stereo not shown) [Compound 14] | 300
COc1ccc(C2Oc3ccccc3O2)cc1O [Compound 15] | 150
COc1ccc(C2OCc3ccccc3S2)cc1S (stereo not shown) [Compound 16] | 50

Compound | Relative Sweetness
Oc1ccc(C2OCc3ccccc3S2)cc1O (stereo not shown) [Compound 17] | 200
Oc1cccc(C2OCc3ccccc3S2)c1 (stereo not shown) [Compound 18] | 100
COc1ccc(C2CS(=O)(=O)c3ccccc3O2)cc1O (stereo not shown) [Compound 19] | 50
COc1ccc(C2CSc3cc(O)ccc3O2)cc1O (stereo not shown) [Compound 20] | 500
COc1ccc(C(=O)c2ccccc2C(=O)O)cc1O [Compound 21] | 250
O=C(O)c1ccccc1C(=O)c1ccc(O)c(O)c1 [Compound 22] | 100
COc1ccc([S+]([O-])c2ccccc2C(=O)O)cc1 (stereo not shown) [Compound 23] | 50
COc1ccc(CCC(=O)c2c(O)cc(O)cc2O)cc1O [Compound 24] | 665
COc1ccc(CCC(=O)c2cccc(C(=O)O)c2)cc1O [Compound 25] | 80
COc1ccc(OCc2ccccc2C(=O)O)cc1O [Compound 26] | 10
COc1ccc(CCc2ccccc2)cc1O [Compound 27] | 300
O=C(O)c1ccccc1C(=O)c1ccc(O)cc1 [Compound 30] | 200
COc1ccc(C(=O)/C=C/C(=O)O)cc1 [Compound 33] | 50
COc1ccc(OC(=O)c2ccccc2C(=O)O)cc1 [Compound 34] | 10
COc1ccc(C(=O)c2ccccc2C(=O)[O-])cc1.[Na+] [Compound 36] | 150
